Results taken from ChEMBL document CHEMBL5137055, “Near-Infrared Fluorescent Probes as Imaging and Theranostic Modalities for Amyloid-Beta and Tau Aggregates in Alzheimer's Disease” (J Med Chem, 2022).

Legend:
Homo sapiens [1] = species: Homo sapiens; assay: Inhibition of amyloid beta (unknown origin) measured by ThT-based fluorimetric assay; details: concentration not given here
[2] = Binding affinity to soluble amyloid beta (unknown origin); design: species or system Homo sapiens
[3] = Binding affinity to insoluble amyloid beta (unknown origin); design: species or system Homo sapiens
[4] = molecular target: T1, Amyloid-beta precursor protein (Homo sapiens, UniProt P05067); assay: Binding affinity to amyloid beta (1 to 42) (unknown origin) monomer
T1 sequence (P05067 whole entry): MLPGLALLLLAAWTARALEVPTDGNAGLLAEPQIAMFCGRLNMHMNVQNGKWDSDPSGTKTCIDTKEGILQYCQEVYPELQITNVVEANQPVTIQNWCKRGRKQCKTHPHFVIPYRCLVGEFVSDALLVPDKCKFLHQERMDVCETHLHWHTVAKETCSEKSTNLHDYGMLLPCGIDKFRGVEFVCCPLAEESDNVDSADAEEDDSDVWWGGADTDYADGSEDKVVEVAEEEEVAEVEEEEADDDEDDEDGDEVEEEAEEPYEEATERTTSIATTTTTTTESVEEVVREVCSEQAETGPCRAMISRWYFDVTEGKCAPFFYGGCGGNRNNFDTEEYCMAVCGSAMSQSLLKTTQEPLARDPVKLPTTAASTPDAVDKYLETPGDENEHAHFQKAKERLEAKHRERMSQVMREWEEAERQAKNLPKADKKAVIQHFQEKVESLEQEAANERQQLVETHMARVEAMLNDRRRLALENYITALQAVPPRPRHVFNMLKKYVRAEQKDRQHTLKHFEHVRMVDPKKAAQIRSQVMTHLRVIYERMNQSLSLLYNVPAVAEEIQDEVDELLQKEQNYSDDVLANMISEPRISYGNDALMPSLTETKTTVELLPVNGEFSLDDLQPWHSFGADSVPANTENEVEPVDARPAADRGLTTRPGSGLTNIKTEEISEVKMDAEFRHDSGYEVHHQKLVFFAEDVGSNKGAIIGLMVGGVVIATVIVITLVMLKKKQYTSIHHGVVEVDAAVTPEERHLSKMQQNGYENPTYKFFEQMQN

[5] = Lipophilicity, logP of compound; assay type: physicochemical; details: octanol/water
[6] = molecular target: T1, Amyloid-beta precursor protein; assay: Binding affinity to amyloid beta (1 to 40) (unknown origin) monomer
[7] = Drug uptake in brain of Tg mouse; assay type: ADME, tissue-based; details: Tg, brain, read-out: Drug uptake
[8] = Binding affinity to amyloid beta (unknown origin) aggregates; design: species or system Homo sapiens
Homo sapiens [9] = species: Homo sapiens; assay: Inhibition of amyloid beta (unknown origin) assessed as decrease in amyloid beta monomers
[10] = molecular target: T1, Amyloid-beta precursor protein; assay: Binding affinity to amyloid beta (1 to 42) (unknown origin) aggregates
[11] = Inhibition of amyloid beta (unknown origin) self-induced aggregation; design: species or system Homo sapiens
[12] = molecular target: T1, Amyloid-beta precursor protein; assay: Binding affinity to amyloid beta (1 to 42) (unknown origin) fibrils
[13] = molecular target: T1, Amyloid-beta precursor protein; assay: Binding affinity to amyloid beta (1 to 40) (unknown origin) fibrils
[14] = molecular target: T1, Amyloid-beta precursor protein; assay: Displacement of [125I]IMPY from amyloid beta (1 to 42) (unknown origin) measured by competitive radioligand binding assay
[15] = molecular target: T1, Amyloid-beta precursor protein; assay: Binding affinity to amyloid beta (1 to 40) (unknown origin) oligomer
[16] = Drug uptake in brain of Tg mouse at 2 mins post injection; assay type: ADME, tissue-based; details: read-out: Drug uptake
[17] = molecular target: T1, Amyloid-beta precursor protein; assay: Displacement of [125I]IMPY from amyloid beta (1 to 40) (unknown origin) measured by competitive radioligand binding assay
[18] = molecular target: T1, Amyloid-beta precursor protein; assay: Binding affinity to human amyloid beta (1 to 42) oligomer measured by fluorescence polarization assay
[19] = molecular target: T1, Amyloid-beta precursor protein; assay: Binding affinity to human amyloid beta (1 to 42) monomer measured by fluorescence polarization assay
[20] = molecular target: T1, Amyloid-beta precursor protein; assay: Binding affinity to human amyloid beta (1 to 42) aggregates measured by fluorescence polarization assay
Albumin = Albumin (Bos taurus, UniProt P02769); assay: Binding affinity to bovine serum albumin
Sequence of Albumin (P02769 whole entry): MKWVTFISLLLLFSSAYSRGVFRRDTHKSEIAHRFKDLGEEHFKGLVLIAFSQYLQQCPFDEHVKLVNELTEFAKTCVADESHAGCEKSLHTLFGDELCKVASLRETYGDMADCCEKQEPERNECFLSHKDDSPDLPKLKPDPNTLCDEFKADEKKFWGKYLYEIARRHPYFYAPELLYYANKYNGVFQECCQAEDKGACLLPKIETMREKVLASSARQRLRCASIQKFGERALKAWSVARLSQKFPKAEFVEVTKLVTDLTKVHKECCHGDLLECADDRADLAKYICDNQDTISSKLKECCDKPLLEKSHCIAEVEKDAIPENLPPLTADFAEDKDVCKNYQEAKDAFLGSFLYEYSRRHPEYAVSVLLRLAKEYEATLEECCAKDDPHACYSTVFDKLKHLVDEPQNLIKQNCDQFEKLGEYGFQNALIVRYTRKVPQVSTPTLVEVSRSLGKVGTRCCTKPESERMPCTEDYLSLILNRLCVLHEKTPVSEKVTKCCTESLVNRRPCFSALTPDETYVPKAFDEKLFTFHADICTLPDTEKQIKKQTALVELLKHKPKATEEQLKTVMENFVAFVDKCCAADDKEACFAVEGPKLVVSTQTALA

[21] = Binding affinity to amyloid beta (unknown origin) monomer; design: species or system Homo sapiens

Work on `Cc1ccc2nc(/C=C/c3ccc(N)cc3)ccc2c1` yielded an inhibition (Homo sapiens [1]) of 73%.
`CCN(CC)c1ccc(/C=C/C2=[O+][B-](F)(F)OC(/C=C/c3ccc(N(CC)CC)nc3)=C2CCCOc2c(C)cccc2C)cn1` gave a Kd [2] of 7.5 nM and a Kd [3] of 506 nM.
With `CCN(CC)c1ccc(/C=C/C2=CC(/C=C/c3ccc(N(C)C)cc3)=[O+][B-](F)(F)O2)cn1` the Kd [4] was 45.8 nM, the logP [5] was 1.94 and the Kd [6] was 106 nM.
Molecule `CN(C)c1ccc2cc(/C=C/C=C/C=C(C#N)C#N)ccc2c1` has a logP [5] of 4.48, a tissue uptake [7] of 3.4 %ID/g and a Kd [8] of 1.9 nM. The Ki [8] was 32.7 nM.
Work on `Nc1c(/N=N/c2ccc(-c3ccc(/N=N/c4cc(S(=O)(=O)O)c5ccccc5c4N)cc3)cc2)cc(S(=O)(=O)O)c2ccccc12` yielded an ID50 (Homo sapiens [9]) of 3400 nM.
`CN(C)c1ccc(/C=C/C=C/C=C(C#N)C#N)cc1` gave a Kd [10] of 26.9 nM and a Ki [10] of 36.9 nM.
In the case of `CCOC(=O)CN1C(=O)/C(=C/c2ccc3c(c2)Sc2ccccc2N3C)SC1=S`, the logP [5] is reported as 3.68, the Kd [8] is reported as 7.5 nM and the IC50 [11] is reported as 670 nM.
For `C[n+]1ccc(/C=C/c2ccc(N(c3ccccc3)c3ccccc3)cc2)c2ccccc21`, the Kd [4] was 31700 nM, the Kd [12] was 17400 nM and the Kd [6] was 25900 nM. The Kd [13] was 14600 nM.
For `CN(C)c1ccc(/C=C/C=C/C=C2C(=O)CC(C)(C)CC2=O)cc1`, the Ki [10] was 645 nM.
With `CN(CCO)c1ccc2cc(/C=C/C=C/C=C(C#N)C#N)ccc2c1` the Kd [14] was 14.5 nM.
`CCN1/C(=C/C=C2\CCCC(/C=C(/C#N)C(=O)C(C)(C)C)=C2Cl)C(C)(C)c2ccccc21` gave a Kd [10] of 445 nM.
With `COCCOCCn1c2ccc(F)cc2c2cc(/C=C/c3cc[n+](CCO)c4ccccc34)ccc21` the Kd [6] was 3220 nM, the Kd [13] was 1900 nM and the Kd [15] was 660 nM.
For `CN1C(=O)C(=C/C=C/C=C/c2ccc(N(C)C)cc2)C(=O)N(C)C1=O`, the tissue uptake at 2 min [16] was 0.83 %ID/g, the Ki [14] was 13.7 nM and the Kd [17] was 23.9 nM.
`COc1cc(/C=C/C(=O)/C(Cc2cn(CCCCCCNC(=O)CCNC(=O)CCNC(=O)CO[C@H]3CC[C@@]4(C)C(=CC[C@H]5[C@@H]6CC[C@H]([C@@H](C)CCCC(C)C)[C@@]6(C)CC[C@@H]54)C3)nn2)=C(O)/C=C/c2ccc(O)c(OC)c2)ccc1O` gave a Kd [18] of 2170 nM, a Kd [19] of 2030 nM and a Kd [20] of 830 nM. The Kd (Albumin) was 71000 nM.
For `COCCOCCn1c2ccccc2c2cc(/C=C/c3cc[n+](C)c4ccccc34)ccc21`, the Kd [4] was 40200 nM, the Kd [12] was 11400 nM and the Kd [6] was 96600 nM. The Kd [13] was 13100 nM.
For `COC(=O)/C(C#N)=C/C=C/C=C/c1ccc(N(C)C)cc1`, the Kd [14] was 106 nM.
In the case of `COc1ccc(/C=C/C2=[N+]3C(=C(/C=C/c4ccc(N(C)C)cc4)c4ccc(/C=C/c5ccc(OC)cc5)n4[B-]3(F)F)C=C2)cc1`, the Kd [21] is reported as 320 nM.
Work on `COc1ccc(/C=C/c2ccc3n2[B-](F)(F)[N+]2=C(C)C=CC2=C3/C=C/c2ccc(N(C)C)cc2)cc1` yielded a Kd [21] of 230 nM.
For `CN(C)c1ccc(/C=C/C=C/C=C2C(=O)OC(C)(C)OC2=O)cc1`, the Ki [10] was 354 nM.
In the case of `CCO[n+]1ccc(/C=C/c2ccc(N(C)C)cc2)c2ccccc21`, the Kd [4] is reported as 17600 nM, the Kd [12] is reported as 7780 nM and the Kd [6] is reported as 13000 nM. It also gave a Kd [13] of 4290 nM.
